# Measured values from patent US20220305136A1, “ANTI-CTLA4 CONJUGATES” (Ascendis Pharma Oncology Division A/S, priority 2019, published 2022).
# Key:
# spleen immune cells = assay: Flow cytometric profiling of spleen immune cells; assay type: in vivo, C57BL/6 mice with the human CTLA4 gene knocked in; conditions: day 7; doses as E70
# Protocol: (§1) The study was conducted in female C57BL/6 mice with the human CTLA4 gene knocked into the endogenous CTLA4 locus with an age of 6-11 weeks at the day of tumor inoculation. This model is also known as a Human Genetically Engineered Mouse Model or HuGEMM. Mice were subcutaneously implanted with 1×10^6 MC38 tumor cells in the right flank. When tumors to be injected were grown to a mean tumor volume of ˜65 mm^3, mice were randomized into treatment cohorts (day 0) and treated with either: 1) a single 50 μL intratumoral injection of control hydrogel 30 or 2) four total 200 μL intraperitoneal doses of 18 μg given on days 0, 4, 8, and 12 of free CTLA-4 mAB, or 3) a single 50 μL intratumoral injection of 840 μg of CTLA-4 mAB-linker-hydrogel prodrug 29b or 3) a single 50 μL intratumoral injection of 72 μg of CTLA-4 mAB-linker-hydrogel prodrug 29c. Hydrogels were administered as suspensions in 20 mM succinate, 135 mM NaCl, 0.01% Tween20, pH 4.0 buffer.
# (§2) Mice were sacrificed 7 days after randomization (D0). Following sacrifice, blood, spleen and tumor were isolated. Spleen samples were dissociated mechanically to generate single suspensions. Tumor samples were enzymatically and mechanically dissociated to generate single cell suspensions. Cell suspensions from spleen and tumor were centrifuged at 300 g for 5 minutes and 2×10^6 cells were used for staining. For whole blood, approximately 100 μL was used for staining. Cells were resuspended in FACS buffer with 1 μg/ml Fc-Block and incubated at 4° C. for 10 minutes in the dark. Surface marker antibody mixtures in FACS buffer were added to each sample and samples were incubated in the dark at 4° C. for 30 minutes. Red blood cell lysis buffer (Bio-gems) was added if needed and cells were further incubated at 4° C. for 10 minutes. Cells were washed twice with FACS buffer then fixed and permeabilized for 30 minutes at room temperature with Fix/Perm buffer (eBioscience). Cells were washed twice in Permeabilization Buffer and stained with intracellular antibodies in Permeabilization buffer for 30 minutes at room temperature. Cells were washed twice in FACS buffer and acquired in the presence of 123count Ebeads (eBioscience). After collection, FACS data was analyzed using FlowJo Version 10.6.1. Compensation was digitally adjusted using single antibody-stained beads, single antibody-stained cells, and fluorescence minus one (FMO) controls. CD4^+ T cells were gated as live, intact CD45+ CD3+ CD4+ events. Tregs were gated as the CD25+ FOXP3+ subset of CD4 T cells. CD8^+ T cells were gated as live, intact CD45+ CD3+ CD8+ events. Subgates were then defined using the controls mentioned above. The change in the mean percentage of positive cells for indicated populations relative to control treatment was calculated by the formula: mean percentage of positive cells in treated animals—mean percentage of positive cells in control treated animals.
# [1] = Plasma pharmacokinetics of CTLA-4 mAB in Wistar rats; assay type: in vivo; conditions: n=3
# Protocol: This study was performed in order to investigate the plasma pharmacokinetics of CTLA-4 mAB in Wistar rats following subcutaneous administration of transient CTLA-4 mAB-linker-hydrogel prodrug 29b or following subcutaneous or intravenous administration of free CTLA-4 mAB. Animals (n=3 per group) received either a single SC injection of a 29b (1 mg/kg CTLA-4 mAB equivalents) in the neck region or a single SC injection in the neck region or IV injection in the tail vein of an CTLA-4 mAB formulation (1 mg/kg CTLA-4 mAB). At selected time points, 200 μL blood were collected in L^1-Heparin tubes and processed to plasma by centrifugation at 3,000 g for 10 minutes at 4° C.
# CTLA-4 mAB concentrations in rat plasma were determined with a commercial ELISA setup obtained from BioVision Inc. (CA, USA, order number E4384-100). The manufacturer's instructions were followed with minor changes to the protocol. Specifically, the plasma samples were used undiluted (except for samples above the upper limit of quantification which were diluted with blank plasma prior to the measurement) and the sample incubation time was prolonged to 60 minutes.
# Calibration standards of CTLA-4 mAB in blank plasma were prepared as follows: thawed L^1-Heparin Wistar rat plasma was homogenized. The free CTLA-4 mAB formulation was spiked into blank plasma at concentrations between 5,000 ng/mL and 50 ng/mL with additional higher and lower anchor points. These solutions were used for the generation of a calibration curve. Calibration curves were analyzed via a 4-parameter logarithmic fit and 1/Y^2 weighted. The determined CTLA-4 mAB plasma concentrations are depicted in Table 1.
# blood immune cells = assay: Flow cytometric profiling of blood immune cells; assay type: in vivo, C57BL/6 mice with the human CTLA4 gene knocked in; conditions: day 7; doses as E70
# Protocol: as §1, §2
# MC38 tumor cells [2] = assay: In vivo anti-tumor efficacy, MC38 tumor bearing mice (Example 33); set-up: species or system C57BL/6 mice with the human CTLA4 gene knocked in
# Protocol: as §1, with “[…] Following treatment initiation, anti-tumor efficacy was assessed by determination of tumor volumes at various time points from tumor size measurements with a caliper. Tumor volumes” for “Hydrogels”, “calculated according to the formula: Tumor volume=(L×W^2)×0.5 where L is the length of the tumor and W the width (both” for “administered as suspensions”, “mm). […] Percent tumor growth inhibition (TGI) was calculated according to the formula: [1−(Mean Tumor Volume in treated animals)/(Mean Tumor Volume in control animals)]*100.” for “20 mM succinate, 135 mM NaCl, 0.01% Tween20, pH 4.0 buffer.”
# tumor immune cells = assay: Flow cytometric profiling of tumor immune cells; assay type: in vivo, C57BL/6 mice with the human CTLA4 gene knocked in; conditions: day 7
# Protocol: as §1
# as §2, with “CD8^+ T cells were gated as live, intact CD45+ CD3+ CD8+ events. Subgates were then defined using the controls mentioned above.” left out
# MC38 tumor cells [3] = assay: In vivo anti-tumor efficacy, MC38 tumor bearing mice (Example 28); set-up: species or system C57BL/6 mice with the human CTLA-4 gene knocked in; conditions: CTLA-4 mAB 4 x 210 μg intraperitoneal days 0, 4, 8, 12, 29b single 840 μg intratumoral
# Protocol: The study was conducted in female C57BL/6 mice with the human CTLA-4 gene knocked into the endogenous CTLA-4 locus with an age of 6-11 weeks at the day of tumor inoculation. This model is also known as a Human Genetically Engineered Mouse Model or HuGEMM. Mice were subcutaneously implanted with 1×10^6 MC38 tumor cells in the right flank. When tumors to be injected were grown to a mean tumor volume of ˜65 mm^3, mice were randomized into treatment cohorts (day 0) and treated with either: 1) a single 50 μL intratumoral injection of control hydrogel 30 or 2) a single 50 μL intratumoral injection of 840 μg of CTLA-4 mAB-linker-hydrogel prodrug 29b or 3) four total 200 μL intraperitoneal doses of 210 μg given on Days 0, 4, 8, and 12 of CTLA-4 mAB. Hydrogels were administered as suspensions in 20 mM succinate, 135 mM NaCl, 0.01% Tween-20, pH 4.0 buffer. Following treatment initiation, anti-tumor efficacy was assessed by determination of tumor volumes at various time points from tumor size measurements with a caliper. Tumor volumes were calculated according to the formula:
# Tumor volume=(L×W^2)×0.5 where L is the length of the tumor and W the width (both in mm). Mice were removed from the study once tumors were greater than 3000 mm^3.
substance,measurement,setting,value
"CTLA-4 mAB: Monoclonal antibody CTLA-4 mAB (AMO-M6104, CAS No. 477202-00-9) obtained from AbMole Bioscience Inc.",Increase in Percentage Positive from control hydrogel 30: Spleen CD4 of T,spleen immune cells,4.90%
same,Increase in Percentage Positive from control hydrogel 30: Spleen CD25+ of CD4,spleen immune cells,4.38%
same,Increase in Percentage Positive from control hydrogel 30: Spleen CD69+ of CD4,spleen immune cells,8.33%
same,Increase in Percentage Positive from control hydrogel 30: Spleen CD69+ of Treg,spleen immune cells,9.17%
same,Increase in Percentage Positive from control hydrogel 30: Spleen ICOS+ of CD8s,spleen immune cells,3.18%
same,Increase in Percentage Positive from control hydrogel 30: Spleen Ki67+ of CD4s,spleen immune cells,11.75%
same,Increase in Percentage Positive from control hydrogel 30: Spleen Ki67+ of Tregs,spleen immune cells,16.97%
same,Increase in Percentage Positive from control hydrogel 30: Spleen Treg of CD4,spleen immune cells,6.64%
same,mean CTLA-4 mAB plasma concentration,"[1]; 1 h, 1 mg/kg CTLA-4 mAB (equivalents), subcutaneous, LLOQ 50 ng/mL",170 ng/mL
same,mean CTLA-4 mAB plasma concentration,"[1]; 1 h, 1 mg/kg intravenous",18000 ng/mL
same,mean CTLA-4 mAB plasma concentration,"[1]; 4 h, 1 mg/kg CTLA-4 mAB (equivalents), subcutaneous, LLOQ 50 ng/mL",600 ng/mL
same,mean CTLA-4 mAB plasma concentration,"[1]; 4 h, 1 mg/kg intravenous",14000 ng/mL
same,mean CTLA-4 mAB plasma concentration,"[1]; 24 h, 1 mg/kg CTLA-4 mAB (equivalents), subcutaneous",3700 ng/mL
same,mean CTLA-4 mAB plasma concentration,"[1]; 24 h, 1 mg/kg intravenous",9600 ng/mL
same,mean CTLA-4 mAB plasma concentration,"[1]; 32 h, 1 mg/kg CTLA-4 mAB (equivalents), subcutaneous",4800 ng/mL
same,mean CTLA-4 mAB plasma concentration,"[1]; 32 h, 1 mg/kg intravenous",7500 ng/mL
same,mean CTLA-4 mAB plasma concentration,"[1]; 48 h, 1 mg/kg CTLA-4 mAB (equivalents), subcutaneous",6200 ng/mL
same,mean CTLA-4 mAB plasma concentration,"[1]; 48 h, 1 mg/kg intravenous",6000 ng/mL
same,mean CTLA-4 mAB plasma concentration,"[1]; 72 h, 1 mg/kg CTLA-4 mAB (equivalents), subcutaneous",6900 ng/mL
same,mean CTLA-4 mAB plasma concentration,"[1]; 72 h, 1 mg/kg intravenous",4900 ng/mL
same,mean CTLA-4 mAB plasma concentration,"[1]; 96 h, 1 mg/kg CTLA-4 mAB (equivalents), subcutaneous",6100 ng/mL
same,mean CTLA-4 mAB plasma concentration,"[1]; 96 h, 1 mg/kg intravenous",4000 ng/mL
same,mean CTLA-4 mAB plasma concentration,"[1]; 168 h, 1 mg/kg CTLA-4 mAB (equivalents), subcutaneous",5700 ng/mL
same,mean CTLA-4 mAB plasma concentration,"[1]; 168 h, 1 mg/kg intravenous",3100 ng/mL
same,Increase in Percentage Positive from control hydrogel 30: Blood CD4 of T,blood immune cells,0.53%
same,Increase in Percentage Positive from control hydrogel 30: Blood CD25+ of CD4,blood immune cells,2.88%
same,Increase in Percentage Positive from control hydrogel 30: Blood CD44++ CD62L− of CD4s,blood immune cells,15.28%
same,Increase in Percentage Positive from control hydrogel 30: Blood CD69+ of CD4,blood immune cells,3.35%
same,Increase in Percentage Positive from control hydrogel 30: Blood CD69+ of Treg,blood immune cells,3.69%
same,Increase in Percentage Positive from control hydrogel 30: Blood ICOS+ of CD4s,blood immune cells,18.80%
same,Increase in Percentage Positive from control hydrogel 30: Blood ICOS+ of CD8s,blood immune cells,9.26%
same,Increase in Percentage Positive from control hydrogel 30: Blood Ki67+ of CD4s,blood immune cells,14.64%
same,Increase in Percentage Positive from control hydrogel 30: Blood Treg of CD4,blood immune cells,2.22%
same,Percent Tumor Growth Inhibition,"MC38 tumor cells [2]; day 20, vs control hydrogel 30, doses as E66",97.3%
same,Mean Tumor Volume (mm3),"MC38 tumor cells [2]; day 20, CTLA-4 mAB 4 x 18 μg intraperitoneal days 0, 4, 8, 12, 29b single 840 μg intratumoral, 29c single 72 μg intratumoral",57.1 mm3
same,Increase in Percentage Positive from control hydrogel 30: Tumor CD44++ CD62L− of CD4s,"tumor immune cells; CTLA-4 mAB 18 μg doses IP, 29b 840 μg IT, 29c 72 μg IT",10.73%
same,Increase in Percentage Positive from control hydrogel 30: Tumor CD44++ CD62L− of CD8s,tumor immune cells; doses as E70,6.51%
same,Increase in Percentage Positive from control hydrogel 30: Tumor CD69+ of CD4s,tumor immune cells; doses as E70,2.37%
same,Increase in Percentage Positive from control hydrogel 30: Tumor ICOS+ of CD4s,tumor immune cells; doses as E70,13.77%
same,Mean Tumor Volume (mm3) Day 20,MC38 tumor cells [3],60.5 mm3
